Experimental data published in ChEMBL document CHEMBL1152415, “Potent antitumor bifunctional DNA alkylating agents, synthesis and biological activities of 3a-aza-cyclopenta[a]indenes” (Bioorg Med Chem, 2009).

Experiments:
CCRF-CEM [1] = assay: Cytotoxicity against human CCRF-CEM cells after 72 hrs by XTT assay; format: functional, cell-based
CCRF-CEM [2] = assay: Cytotoxicity against human taxol-resistant CCRF-CEM cells after 72 hrs by XTT assay; format: functional, cell-based
CCRF-CEM [3] = assay: Cross-resistance, IC50 for human vinblastine-resistant CCRF-CEM cells to IC50 for human CCRF-CEM cells; format: functional
MX1 = assay: Cytotoxicity against human MX1 cells after 72 hrs by SRB assay; format: functional, cell-based; conditions: MX1, 72 h
CCRF-CEM [4] = assay: Cross-resistance, IC50 for human taxol-resistant CCRF-CEM cells to IC50 for human CCRF-CEM cells; format: functional
CCRF-CEM [5] = assay: Cytotoxicity against human vinblastine-resistant CCRF-CEM cells after 72 hrs by XTT assay; format: functional, cell-based
HCT-116 = assay: Cytotoxicity against human HCT116 cells after 72 hrs by SRB assay; format: functional, cell-based; conditions: HCT-116, 72 h
[6] = Cytotoxicity against human OECM1 cells after 72 hrs by WST-1 assay; format: functional, cell-based; conditions: OECM1, 72 h
[7] = Cytotoxicity against human H1299 cells after 72 hrs by WST-1 assay; format: functional, cell-based; conditions: NCI-H1299, 72 h
[8] = Cytotoxicity against human U87 cells after 72 hrs by WST-1 assay; format: functional, cell-based, U-87MG ATCC; conditions: U-87 MG
PC-3 = assay: Cytotoxicity against human PC3 cells after 72 hrs by WST-1 assay; format: functional, cell-based; conditions: PC-3, 72 h
Nucleic Acid = assay: Induction of DNA interstrand cross-linking in human H1299 cells at 100 uM under aerobic condition for 1 hr followed by irradiated with 20 Gy of X-ray by modified comet assay relative to irradiated untreated control; format: cell-based

For CNC(=O)OCc1c(COC(=O)NC)c(-c2ccccc2)n2c1Cc1ccccc1-2, the IC50 (CCRF-CEM [1]; read-out: IC50) was 0.36 µM, the IC50 (CCRF-CEM [2]) was 1.7 µM and the “Ratio IC50” value (CCRF-CEM [3]) was 1.6. For the same compound, the IC50 (MX1) was 5.9 µM, the “Ratio IC50” value (CCRF-CEM [4]) was 4.7 and the IC50 (CCRF-CEM [5]) was 0.55 µM. The IC50 (HCT-116) was 0.75 µM.
For CNC(=O)OCc1c(COC(=O)NC)c(-c2c(OC)cccc2OC)n2c1Cc1ccccc1-2, the IC50 (CCRF-CEM [1]; read-out: IC50) was 0.64 µM, the IC50 (CCRF-CEM [2]) was 0.72 µM and the “Ratio IC50” value (CCRF-CEM [3]) was 0.97. The IC50 (MX1) was 5.3 µM, the “Ratio IC50” value (CCRF-CEM [4]) was 1.1 and the IC50 (CCRF-CEM [5]) was 0.62 µM. The IC50 (HCT-116) was 1.1 µM.
In the case of OCc1c(CO)c(-c2ccc(F)cc2)n2c1Cc1ccccc1-2, the IC50 (CCRF-CEM [1]; read-out: IC50) is reported as 4.5 µM, the IC50 (CCRF-CEM [2]) is reported as 7.2 µM and the “Ratio IC50” value (CCRF-CEM [3]) is reported as 2.5. For the same compound, the IC50 (MX1) was 22 µM, the “Ratio IC50” value (CCRF-CEM [4]) was 1.6 and the IC50 (CCRF-CEM [5]) was 11 µM. The IC50 (HCT-116) was 8.7 µM.
For CC[C@]1(O)C[C@@H]2CN(CCc3c([nH]c4ccccc34)[C@@](C(=O)OC)(c3cc4c(cc3OC)N(C)[C@H]3[C@@](O)(C(=O)OC)[C@H](OC(C)=O)[C@]5(CC)C=CCN6CC[C@]43[C@@H]65)C2)C1 [VINBLASTINE], the “Ratio IC50” value (CCRF-CEM [3]) was 107 and the “Ratio IC50” value (CCRF-CEM [4]) was 685.
In the case of CC(=O)O[C@H]1C(=O)[C@@]2(C)[C@H]([C@H](OC(=O)c3ccccc3)[C@]3(O)C[C@H](OC(=O)[C@H](O)[C@@H](NC(=O)c4ccccc4)c4ccccc4)C(C)=C1C3(C)C)[C@]1(OC(C)=O)CO[C@@H]1C[C@@H]2O [PACLITAXEL], the IC50 (CCRF-CEM [1]) is reported as 0.0012 µM, the IC50 (CCRF-CEM [2]) is reported as 1.2 µM and the “Ratio IC50” value (CCRF-CEM [3]) is reported as 333. The “Ratio IC50” value (CCRF-CEM [4]) was 1000 and the IC50 (CCRF-CEM [5]) was 0.4 µM.
CNC(=O)OCc1c(COC(=O)NC)c2n(c1C)-c1ccccc1C2 gave an IC50 (CCRF-CEM [1]; read-out: IC50) of 0.12 µM, an IC50 (CCRF-CEM [2]) of 0.12 µM and an IC50 [6] of 1.45 µM. For the same compound, the IC50 [7] was > 50 µM, the IC50 [8] was > 50 µM and the “Ratio IC50” value (CCRF-CEM [3]) was 0.53. The IC50 (MX1) was 0.34 µM, the “Ratio IC50” value (CCRF-CEM [4]) was 0.67 and the IC50 (CCRF-CEM [5]) was 0.063 µM. For the same compound, the IC50 (PC-3) was 27.2 µM and the IC50 (HCT-116) was 0.3 µM.
In the case of OCc1c(CO)c(-c2ccc(Cl)cc2)n2c1Cc1ccccc1-2, the IC50 (CCRF-CEM [1]; read-out: IC50) is reported as 4.3 µM, the IC50 (CCRF-CEM [2]) is reported as 2.4 µM and the “Ratio IC50” value (CCRF-CEM [3]) is reported as 1. For the same compound, the IC50 (MX1) was 6.1 µM, the “Ratio IC50” value (CCRF-CEM [4]) was 0.55 and the IC50 (CCRF-CEM [5]) was 4.5 µM. It also gave an IC50 (HCT-116) of 5.7 µM.
In the case of CNC(=O)OCc1c(COC(=O)NC)c(-c2ccc(F)c(F)c2)n2c1Cc1ccccc1-2, the IC50 (CCRF-CEM [1]; read-out: IC50) is reported as 0.64 µM, the IC50 (CCRF-CEM [2]) is reported as 0.61 µM and the “Ratio IC50” value (CCRF-CEM [3]) is reported as 1. The IC50 (MX1) was 8.2 µM, the “Ratio IC50” value (CCRF-CEM [4]) was 0.97 and the IC50 (CCRF-CEM [5]) was 0.65 µM. The IC50 (HCT-116) was 0.9 µM.
For COc1cc(-c2c(CO)c(CO)c3n2-c2ccccc2C3)cc(OC)c1OC, the IC50 (CCRF-CEM [1]; read-out: IC50) was 2.2 µM, the IC50 (CCRF-CEM [2]) was 1.1 µM and the “Ratio IC50” value (CCRF-CEM [3]) was 0.45. The IC50 (MX1) was 17 µM, the “Ratio IC50” value (CCRF-CEM [4]) was 0.52 and the IC50 (CCRF-CEM [5]) was 0.99 µM. The IC50 (HCT-116) was 29 µM.
In the case of COc1ccccc1-c1c(CO)c(CO)c2n1-c1ccccc1C2, the IC50 (CCRF-CEM [1]; read-out: IC50) is reported as 1 µM, the IC50 (CCRF-CEM [2]) is reported as 1.9 µM and the “Ratio IC50” value (CCRF-CEM [3]) is reported as 2.6. The IC50 (MX1) was 8.7 µM, the “Ratio IC50” value (CCRF-CEM [4]) was 1.9 and the IC50 (CCRF-CEM [5]) was 2.7 µM. For the same compound, the IC50 (HCT-116) was 12 µM.
For CCc1c(COC(=O)NC)c(COC(=O)NC)c2n1-c1ccccc1C2, the IC50 (CCRF-CEM [1]; read-out: IC50) was 0.07 µM, the IC50 (CCRF-CEM [2]) was 0.08 µM and the IC50 [6] was 11.8 µM. For the same compound, the IC50 [7] was > 50 µM, the IC50 [8] was > 50 µM and the “Ratio IC50” value (CCRF-CEM [3]) was 1.5. The IC50 (MX1) was 0.66 µM, the “Ratio IC50” value (CCRF-CEM [4]) was 1.2 and the IC50 (CCRF-CEM [5]) was 0.1 µM. For the same compound, the IC50 (PC-3) was > 50 µM and the IC50 (HCT-116) was 0.71 µM.
For CNC(=O)OCc1c(COC(=O)NC)c(-c2ccc(F)cc2)n2c1Cc1ccccc1-2, the IC50 (CCRF-CEM [1]; read-out: IC50) was 0.14 µM, the IC50 (CCRF-CEM [2]) was 0.3 µM and the “Ratio IC50” value (CCRF-CEM [3]) was 2. The IC50 (MX1) was 0.74 µM, the “Ratio IC50” value (CCRF-CEM [4]) was 2.2 and the IC50 (CCRF-CEM [5]) was 0.28 µM. The IC50 (HCT-116) was 0.4 µM.
Work on COc1ccc(-c2c(CO)c(CO)c3n2-c2ccccc2C3)cc1 yielded an IC50 (CCRF-CEM [1]; read-out: IC50) of 1.2 µM, an IC50 (CCRF-CEM [2]) of 1.7 µM and an IC50 [6] of 9.26 µM. The IC50 [7] was 50.3 µM, the IC50 [8] was 45.5 µM and the “Ratio IC50” value (CCRF-CEM [3]) was 1.4. The IC50 (MX1) was 11 µM, the “Ratio IC50” value (CCRF-CEM [4]) was 1.5 and the IC50 (CCRF-CEM [5]) was 1.6 µM. The IC50 (PC-3) was 55.5 µM and the IC50 (HCT-116) was 6.1 µM.
In the case of CNC(=O)OCc1c(COC(=O)NC)c(-c2ccc(OC)c(OC)c2)n2c1Cc1ccccc1-2, the IC50 (CCRF-CEM [1]; read-out: IC50) is reported as 0.35 µM, the IC50 (CCRF-CEM [2]) is reported as 0.39 µM and the “Ratio IC50” value (CCRF-CEM [3]) is reported as 1.4. For the same compound, the IC50 (MX1) was 1.8 µM, the “Ratio IC50” value (CCRF-CEM [4]) was 1.1 and the IC50 (CCRF-CEM [5]) was 0.5 µM. The IC50 (HCT-116) was 0.66 µM.
With OCc1c(CO)c(-c2ccccc2)n2c1Cc1ccccc1-2 the IC50 (CCRF-CEM [1]; read-out: IC50) was 0.25 µM, the IC50 (CCRF-CEM [2]) was 0.22 µM and the “Ratio IC50” value (CCRF-CEM [3]) was 1. For the same compound, the IC50 (MX1) was 1.3 µM, the “Ratio IC50” value (CCRF-CEM [4]) was 0.9 and the IC50 (CCRF-CEM [5]) was 0.25 µM. It also gave an IC50 (HCT-116) of 1.9 µM.
In the case of CNC(=O)OCc1c(COC(=O)NC)c(-c2ccc(Cl)cc2)n2c1Cc1ccccc1-2, the IC50 (CCRF-CEM [1]; read-out: IC50) is reported as 5.7 µM, the IC50 (CCRF-CEM [2]) is reported as 3.3 µM and the “Ratio IC50” value (CCRF-CEM [3]) is reported as 0.4. For the same compound, the IC50 (MX1) was 9.9 µM, the “Ratio IC50” value (CCRF-CEM [4]) was 0.58 and the IC50 (CCRF-CEM [5]) was 2.3 µM. For the same compound, the IC50 (HCT-116) was 8.9 µM.
For CNC(=O)OCc1c(COC(=O)NC)c(-c2cc(OC)c(OC)c(OC)c2)n2c1Cc1ccccc1-2, the IC50 (CCRF-CEM [1]; read-out: IC50) was 12 µM, the IC50 (CCRF-CEM [2]) was 8.4 µM and the “Ratio IC50” value (CCRF-CEM [3]) was 1.2. The IC50 (MX1) was 7.2 µM, the “Ratio IC50” value (CCRF-CEM [4]) was 0.73 and the IC50 (CCRF-CEM [5]) was 14 µM. For the same compound, the IC50 (HCT-116) was 1.9 µM.
For COc1ccc(-c2c(CO)c(CO)c3n2-c2ccccc2C3)cc1OC, the IC50 (CCRF-CEM [1]; read-out: IC50) was 1 µM, the IC50 (CCRF-CEM [2]) was 1.1 µM and the “Ratio IC50” value (CCRF-CEM [3]) was 1.8. The IC50 (MX1) was 11 µM, the “Ratio IC50” value (CCRF-CEM [4]) was 1.1 and the IC50 (CCRF-CEM [5]) was 1.9 µM. For the same compound, the IC50 (HCT-116) was 4.3 µM.
With COc1cccc(OC)c1-c1c(CO)c(CO)c2n1-c1ccccc1C2 the IC50 (CCRF-CEM [1]; read-out: IC50) was 8.1 µM, the IC50 (CCRF-CEM [2]) was 6.2 µM and the “Ratio IC50” value (CCRF-CEM [3]) was 0.92. For the same compound, the IC50 (MX1) was 26 µM, the “Ratio IC50” value (CCRF-CEM [4]) was 0.76 and the IC50 (CCRF-CEM [5]) was 7.5 µM. It also gave an IC50 (HCT-116) of 43 µM.
With OCc1c(CO)c(-c2ccc(F)c(F)c2)n2c1Cc1ccccc1-2 the IC50 (CCRF-CEM [1]; read-out: IC50) was 5.2 µM, the IC50 (CCRF-CEM [2]) was 7.5 µM and the “Ratio IC50” value (CCRF-CEM [3]) was 1.4. The IC50 (MX1) was 7 µM, the “Ratio IC50” value (CCRF-CEM [4]) was 1.4 and the IC50 (CCRF-CEM [5]) was 7.5 µM. The IC50 (HCT-116) was 11 µM.
Compound CO[C@@]12[C@H](COC(N)=O)C3=C(C(=O)C(C)=C(N)C3=O)N1C[C@@H]1N[C@@H]12 has an Activity (Nucleic Acid) of 76.5%.
